ChEMBL document CHEMBL1146587, “Purification, structure determination, and antimicrobial activity of neutramycins B-G” (2003)
Converted amounts (≈) assume the structure as drawn.

Test system: Staphylococcus aureus
Test: Antibacterial activity against Staphylococcus aureus ATCC 6538P after 18 hrs by broth microdilution method
Assay type: functional

MIC: 32 µg/mL (≈ 48.7 µM)
Compound: CO[C@@H]1[C@H](O)[C@@H](C)O[C@@H](OC[C@H]2[C@@H]3O[C@@H]3/C=C/C(=O)[C@H](C)CC[C@H](O[C@@H]3O[C@H](C)C[C@H](O)[C@H]3O)[C@@H](C)/C=C/C(=O)O[C@@H]2C)[C@@H]1OC [NEUTRAMYCIN E]
